Test results: US9555061B2, “Synthesis and analysis of compounds capable of inducing differentiation of human mesenchymal stems cells into hepatocytes” (National University Corporation Torrori University, priority 2011, dated 2017)

Legend:
Assay type in all cases: cell-based, human
[1] = system: UE7T-13 cells; assay: Immunocytochemistry of hepatocyte markers (UE7T-13); conditions: day 16
Experimental: A cover glass (22×22 mm, […]) was sterilized with 70% EtOH and placed in a 6-well plate. Next, cells were seeded on the cover glass and cultured in a medium containing IC-2, etc. At 8, 16, and […] after the initiation of the culture, the cells were washed twice with PBS. Then, the cells were treated with 4% paraformaldehyde/PBS for 20 min and fixed onto the cover glass. After that, the cells were permeated with 0.2% Triton X-100 for 10 min. Subsequently, the cells were blocked with 3% BSA/PBS for 30 min. An anti-albumin antibody, anti-C/EBP antibody, anti-AFP antibody, or anti-CYP1A1 antibody was used as a primary antibody, and the cells were incubated therewith at 4° C. overnight. Next, an Alexa Fluoro 488 goat anti-mouse antibody or Alexa Fluoro 594 goat anti-rabbit antibody was used as a secondary antibody, and the cells were incubated therewith at room temperature for 1 h. DAPI was used for nuclear staining. Thereafter, 50% glycerol diluted with PBS was used to mount the cover glass. Finally, the cells were observed under a confocal laser microscope. The cells which had been cultured with 0.1% DMSO were used as a control.

[2] = system: UE7T-13 cells; assay: Urea assay (UE7T-13); conditions: day 16
Experimental: The cells were plated on a 24-well plate, and were cultured in a medium containing IC-2, etc. Ammonium chloride (at a final concentration of 5 mM) was added to the medium, and the cells were cultured for 48, 72, and 96 h. Then, an amount of urea in the medium was determined using a QuantiChrom Urea Assay Kit (BioAssay Systems) and a fluorescence plate reader (TECAN) at a wavelength of 520 nm.

[3] = system: UE7T-13 cells; assay: RT-PCR of genes encoding liver-specific secretory proteins and cytokines (UE7T-13); conditions: hexachlorophene 0.8 μM or IC-2 15 μM; days 8, 16, 24
Experimental: Bone marrow-derived mesenchymal stem cells (UE7T-13 cells) were treated with a compound, hexachlorophene (H4625-25G; Sigma-Aldrich, Inc.) or IC-2. At that time, gene expression of each of liver-specific secretory proteins and cytokines was evaluated. […] This time point was set to day 0.
At the next day corresponding to day 1, the medium was changed to DMEM containing hexachlorophene at a final concentration of 0.8 μM or IC-2 at a final concentration of 15 μM. […] After that, the medium was replaced twice during 8 days, and the cells were subcultured every 8 days. Then, the similar operation was carried out until day 24. At days 8, 16, and 24 after the initiation of the induction, TRIzol (Invitrogen) was used to extract total RNA according to the attached instruction. After the extraction, deoxyribonuclease (Nippon Gene) was added, and the mixture was incubated at 37° C. for 30 min to remove DNA. In a reverse transcription reaction, SuperScriptII Reverse Transcriptase (Invitrogen) and Oligo(dT)15 primer were added to 1 μg of RNA to convert it into cDNA. In a RT-PCR method, the cDNA was diluted by 5 times. Next, 1 μl of the cDNA was used as a template. Then, rTaq DNA polymerase (TOYOBO) was used to amplify the cDNA. MQ water was used as a negative control. cDNA from Huh-7 or UE7T-13 cells was used as a positive control. […]

For “(6S,9aS)-6-phenyl-8-naphthalen-1-ylmethyl-4,7-dioxo-hexahydro-pyrazino[1,2-a]pyrimidine-1-carbocylic acid benzylamide [IC-2]”, the “levels of expression of albumin, C/EBPα, CYP1A1, and CYP3A4” value [1] was “remarkably increased”, the “cellular urea synthesis compared with negative control (0.1% DMSO)” value [2] was “remarkably increased” and the “expression of a plurality of the liver-specific secretory proteins and cytokines” value [3] was “increased levels of expression”.
